Experimental findings from the supplement of paper PMC5752671 are described below.

Structures are written as SMILES.

What all share (conditions): 4 days
For assay [1], the system named is MV4.11. As to the kind of experiment: area under dose-response curve (cell viability) (AUC (arbitrary, % viability x log concentration)); higher = less sensitive (more viable). The essentials:
(§1)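 Drugs were dispensed robotically, one day after plating, onto fourteen leukemia cell lines in 384-well plates coated with extracellular matrix. Each drug was tested in duplicate at eight concentrations spanning 4–5 logs inside 10^–12–10^–4 M, adjusted per drug, and CellTiter-Glo readout followed after 4 days. Duplicates were averaged and a four-parameter sigmoid was fitted. The area under that fitted curve is the reported value.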

The test system of assay [2] is HL60. The description is as above. The procedure, abridged: as §1
In assay [3] the test system is PL-21. The description is as above. The essentials:
as §1

Assay [4] has as its system THP-1. The assay is described as above. The essentials: as §1
Assay [5] has as its system KASUMI1. The description is as above. The essentials: as §1
The subject of assay [6] is MOLM/13. Described as above. The procedure, abridged: as §1
In assay [7] the test system is MV4.11. The experiment in a line: IC50 (cell viability) (log10 M). The procedure, abridged:
(§2)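 Drugs were dispensed robotically in duplicate onto fourteen leukemia cell lines plated a day earlier on 384-well plates with an extracellular matrix coating, at eight concentrations covering 4–5 logs inside the 10^–12–10^–4 M range, set for each drug. CellTiter-Glo was used to read viability after 4 days. Each IC50 in the table comes from a fitted curve. It is given as the concentration in log10 M where a four-parameter curve crosses 50% viability, or as the highest tested concentration when the curve never reaches that level.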

In a further assay the test system is SKM1. As to the kind of experiment: IC50 (cell viability) (log10 M). The procedure, abridged:
as §2

The test system of the next assay is EOL-1. As to the kind of experiment: IC50 (cell viability) (log10 M). The procedure, abridged:
as §2

In a further assay the test system is OCI-AML3. As to the kind of experiment: IC50 (cell viability) (log10 M). The essentials: as §2
The subject of a further assay is OCI-AML2. The experiment in a line: IC50 (cell viability) (log10 M). The essentials: as §2
For a further assay, the system named is U937. As to the kind of experiment: IC50 (cell viability) (log10 M). The essentials: as §2
Another assay deals with MOLM/16. As to the kind of experiment: IC50 (cell viability) (log10 M). The procedure, abridged:
as §2

In the next assay the test system is NB4. The experiment in a line: IC50 (cell viability) (log10 M). The essentials: as §2
The test system of assay [8] is HL60. The experiment in a line: IC50 (cell viability) (log10 M). The essentials: as §2
The test system of assay [9] is PL-21. As to the kind of experiment: IC50 (cell viability) (log10 M). The procedure, abridged:
as §2

Assay [10] relates to THP-1. The experiment in a line: IC50 (cell viability) (log10 M). The essentials:
as §2

Assay [11] deals with KASUMI1. The experiment in a line: IC50 (cell viability) (log10 M). The procedure, abridged:
as §2

Assay [12] has as its system MOLM/13. As to the kind of experiment: IC50 (cell viability) (log10 M). The procedure, abridged:
as §2

The next assay deals with KG1. The experiment in a line: IC50 (cell viability) (log10 M). The essentials: as §2

`CC1=C(/C=C/C(C)=C/C=C/C(C)=C/C(=O)Nc2ccc(O)cc2)C(C)(C)CCC1` [Fenretinide]: the “area under dose-response curve” value in the assay with MV4.11 [1] worked out at 545; in the assay with HL60 [2], 691; in the assay with PL-21 [3] it was 565; in the assay with THP-1 [4] it was 653; in the assay on KASUMI1 [5], 691; in the assay on MOLM/13 [6] it was 618. The “IC50 (log10 M)” value was -5.75 with MV4.11 [7]; -5.32 in the assay on SKM1; -5.86 in the assay with EOL-1; -5.57 in the assay with OCI-AML3; -5.5 in the assay with OCI-AML2; -5.82 in the assay with U937. In addition, the “IC50 (log10 M)” value in the assay on MOLM/16 was -5.9; in the assay on NB4 it was -5.62; in the assay with HL60 [8], -5.46; in the assay with PL-21 [9] it was -5.44; with THP-1 [10], -5.28; with KASUMI1 [11], -5.47. The “IC50 (log10 M)” value was -5.29 with MOLM/13 [12] and -5.82 in the assay with KG1.

On to `Nc1nc(F)nc2c1ncn2[C@@H]1O[C@H](CO)[C@@H](O)[C@@H]1O` [Fludarabine], for which the “area under dose-response curve” value in the assay on MV4.11 [1] is 594; with HL60 [2] it was 643; in the assay on PL-21 [3], 573; in the assay with THP-1 [4], 676; in the assay with KASUMI1 [5], 655; in the assay on MOLM/13 [6], 646. In addition, the “IC50 (log10 M)” value with MV4.11 [7] is -5.34; with SKM1, -5.13; in the assay on EOL-1, -5.77; in the assay on OCI-AML3 it was -5.41; in the assay on OCI-AML2, -5.56; in the assay with U937, -5.74. In addition, the “IC50 (log10 M)” value in the assay with MOLM/16 is -5.46; in the assay on NB4 it was more than -5; in the assay with HL60 [8] it was -5.2; in the assay with PL-21 [9], -5.62; in the assay with THP-1 [10] it was more than -5; with KASUMI1 [11], -5.19. Besides, the “IC50 (log10 M)” value is -5.23 with MOLM/13 [12] and -5.01 in the assay with KG1.

Consider `c1cc(-c2sc(-c3ccncc3)c(-c3ccncc3)c2-c2ccncc2)ccn1` [GANT58], for which the “area under dose-response curve” value came out at 671 in the assay on MV4.11 [1]; 733 with HL60 [2]; 604 in the assay with PL-21 [3]; 735 in the assay with THP-1 [4]; 704 in the assay with KASUMI1 [5]; 643 in the assay on MOLM/13 [6]. Moreover, the “IC50 (log10 M)” value with MV4.11 [7], with SKM1, in the assay with EOL-1, with OCI-AML3, with OCI-AML2 and with U937 was more than -5 in each case. Also, the “IC50 (log10 M)” value with MOLM/16, in the assay with NB4, in the assay on HL60 [8], in the assay with PL-21 [9], in the assay with THP-1 [10] and in the assay with KASUMI1 [11] was more than -5 throughout. For the same compound, the “IC50 (log10 M)” value in the assay on MOLM/13 [12] and in the assay on KG1 was more than -5 in each case.

As to `CS(=O)(=O)c1ccc(C(=O)Nc2ccc(Cl)c(-c3ccccn3)c2)c(Cl)c1` [GDC-0449], the “area under dose-response curve” value in the assay on MV4.11 [1] is 680; in the assay on HL60 [2] it was 747; in the assay on PL-21 [3], 619; in the assay on THP-1 [4] it was 754; in the assay on KASUMI1 [5], 730; in the assay on MOLM/13 [6], 693. The “IC50 (log10 M)” value in the assay with MV4.11 [7], with SKM1, in the assay on EOL-1, with OCI-AML3, in the assay on OCI-AML2 and in the assay on U937 was more than -5 throughout. Moreover, the “IC50 (log10 M)” value with MOLM/16, in the assay with NB4, with HL60 [8], in the assay with PL-21 [9], with THP-1 [10] and with KASUMI1 [11] was more than -5 each time. The “IC50 (log10 M)” value in the assay on MOLM/13 [12] and with KG1 was more than -5 each time.

`COc1cc2ncnc(Nc3ccc(F)c(Cl)c3)c2cc1OCCCN1CCOCC1` [Gefitinib]: the “area under dose-response curve” value in the assay on MV4.11 [1] was 585; with HL60 [2], 716; in the assay on PL-21 [3] it was 575; with THP-1 [4] it was 679; in the assay with KASUMI1 [5], 707; in the assay with MOLM/13 [6], 619. Besides, the “IC50 (log10 M)” value with MV4.11 [7] is -5.48; in the assay with SKM1 it was more than -5; with EOL-1, -5.5; with OCI-AML3 it was more than -5; with OCI-AML2, more than -5; with U937, more than -5. In addition, the “IC50 (log10 M)” value is -5.47 in the assay on MOLM/16; more than -5 in the assay with NB4; more than -5 in the assay on HL60 [8]; -5.34 with PL-21 [9]; more than -5 in the assay with THP-1 [10]; more than -5 with KASUMI1 [11]. The “IC50 (log10 M)” value in the assay with MOLM/13 [12] was -5.18; with KG1, -5.01.
